Measured values as given in PubChem BioAssay (NCI).
Several values for one entry are separate records, joined by “and”; a condition that tells them apart may be missing. Identical values can stand only once.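 A five-concentration, 48-hour dose response in 96-well plates underlies each endpoint, interpolated linearly between surrounding concentrations. At the GI50, growth is halved. TGI: total growth inhibition.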

Assays:
Assay in all cases: inhibition of tumour cell growth, NCI panel, 48 h
SK-OV-3 ovarian = system: SK-OV-3 ovarian
UACC-62 melanoma = system: UACC-62 melanoma
KM12 colon = system: KM12 colon
SW-620 colon = system: SW-620 colon
SK-MEL-5 melanoma = system: SK-MEL-5 melanoma
DU-145 prostate = system: DU-145 prostate
CAKI-1 renal = system: CAKI-1 renal
A498 renal = system: A498 renal
LOX IMVI melanoma = system: LOX IMVI melanoma
BT-549 breast = system: BT-549 breast

SMILES	TGI (SK-OV-3 ovarian) [µM]	TGI (UACC-62 melanoma) [µM]	TGI (KM12 colon) [µM]	TGI (SW-620 colon) [µM]	TGI (SK-MEL-5 melanoma)	TGI (DU-145 prostate) [µM]	TGI (CAKI-1 renal)	TGI (A498 renal)	TGI (LOX IMVI melanoma)	TGI (BT-549 breast)	GI50 (A498 renal)
CC(=O)OC1COC(n2c(N)c(C#N)c(-c3ccccc3)c(C#N)c2=S)C(OC(C)=O)C1OC(C)=O (stereo unspecified)	> 100	> 100	> 100	> 100	> 100 µM and 95.4 µM	> 100	> 100 µM	66 µM and 79.3 µM	79 µM and 76.7 µM	71.8 µM and 62.9 µM	
CC(C)(C)C1=CC(O)(c2c3ccccc3c(C3(O)C=C(C(C)(C)C)C(=O)C(C(C)(C)C)=C3)c3ccccc23)C=C(C(C)(C)C)C1=O	> 100	> 100	> 100	> 100	> 100 µM	> 100	> 100 µM	0.65 µM	> 100 µM	> 100 µM	
CC(C)c1cc(C(C)C)c(B(c2ccccc2)c2ccccc2)c(C(C)C)c1Br	> 100	> 100	> 100	> 100	> 100 µM	> 100	> 100 µM	> 100 µM	> 100 µM	> 100 µM	
Cc1cc(C)c(N)c(CO)c1	> 100	> 90.2	> 100	> 100	> 100 µM	> 100	> 32.1 µM and 27.5 µM	0.231 µM and 0.409 µM	> 100 µM	> 100 µM	0.0675 µM and 0.183 µM
O=C1CCc2c(sc3ncnc(Nc4cccc(Br)c4)c23)C1	20.1	11.1	12.3	11.6	3.67 µM	17.3	12.5 µM	31.4 µM	12.9 µM	13.9 µM	
CC1=NNC(N)=N/C1=C\C(Sc1ccc(Cl)cc1)c1ccc(Cl)cc1Cl (stereo unspecified)	41.9	> 51.9	34.2	59.9	40.1 µM	61.7	> 67.1 µM	42.8 µM	> 49.4 µM	55.7 µM	
CCOC(=O)N1c2c(c3ccccc3n2C(=O)OCC)C(=O)C(OC)N1C(=O)OCC (stereo unspecified)	> 100	> 100	38.9	> 100	60.7 µM	> 100	93.9 µM	88.6 µM	38.8 µM	> 100 µM	
COc1nc2ncc([C@@H](O)[C@H](O)CO)nc2c(=O)[nH]1	> 100	> 100	> 100	> 100	> 100 µM	> 100	> 100 µM	> 100 µM	> 100 µM	> 100 µM	
O=C(OCC(OC(=O)c1ccccc1)C1CC(C(O)C2CCCCC2)C(=O)O1)c1ccccc1 (stereo unspecified)	> 100	> 100	> 100	> 100	32.2 µM	> 100	> 100 µM	> 100 µM	> 100 µM	> 100 µM	
CCN(CC)CCC1(C(=O)OC)SCCc2ccc(C)cc21 (stereo unspecified)	> 100	> 100	> 100	> 100	> 100 µM	> 100	> 100 µM	> 100 µM	> 100 µM	> 100 µM	
CC1=CCC(=O)[C@]2(C)C(CC(=O)O)[C@]3(C)C4=C(C)C(c5ccoc5)C[C@@H]4O[C@@H]3[C@H](O)[C@@H]12 (stereo partly specified)	> 100	> 100	> 100	> 100	> 100 µM	> 100	> 100 µM	> 100 µM	> 100 µM	> 100 µM	
CC(=O)N1C(=O)/C(=C\C(=O)c2ccc(Cl)cc2)c2ccccc21	59.9	28.6	35.3	61.1	39.8 µM	33.7	27.6 µM	69.3 µM	5.9 µM	18.4 µM	
c1ccc(C2C3=C(CCCC3)Nc3nnnn32)cc1 (stereo unspecified)	> 100	> 100	> 100	> 100	> 100 µM	> 100	> 100 µM	> 100 µM	> 100 µM	98.4 µM	
COc1ccc(C2CCc3c(cnc4nc(N)nc(N)c34)C2)cc1 (stereo unspecified)	50.1	> 100	> 100	> 100	> 100 µM	> 100	> 100 µM	> 100 µM	> 100 µM	> 100 µM	
c1ccc2c(c1)[C@@H]1O[C@@H]1[C@@]13O[C@@]21[C@H]1O[C@H]1c1ccccc13	52.2	28.1	29.2	39.5	26.7 µM	29.2	23.2 µM	30.7 µM	27.7 µM	30.3 µM	
